Laboratory results reported in patent US20240327792A1, “FLUID SHEAR STRESS FOR EX VIVO ACTIVATION OF IMMUNE EFFECTOR CELLS” (Vanderbilt University, priority 2021, published 2024).

Columns and labels:
[1] = test system: ZAP70 phosphorylation in Jurkat cells; test: ZAP70 phosphorylation of Jurkat cells treated with FSS and CD3/CD28 antibodies (flow cytometry); type: cell-based, human
Procedure: T cell activation by FSS: Jurkat or primary T cells were collected and resuspended at a concentration of 200,000 cells/mL in complete RPMI 1640 media. The cells were treated with or without functional grade antibodies targeting CD3 (OKT3) and CD28 (CD28.2) at a concentration of 2 μg/mL for both antibodies. The T cells were then loaded into a Brookfield cone-and-plate viscometer for FSS treatment as described previously in Mitchell & King (Mitchell, M. J. et al. New J. Phys. 2013 15:015008). In a cone-and-plate viscometer the FSS magnitude is equal in all radial locations of the viscometer. The shear rate (G) is defined by the equation:
τ=μG • where μ is the viscosity (cP) of the fluid. In these experiments, viscosity was approximately 2.5 cP. Before FSS treatment, the cone-and-plate viscometer was cleaned thoroughly with 70% ethanol. The stationary plate and the rotating cone were then incubated with 5% BSA for 1 h to block nonspecific adhesion. The cells were exposed to fluid shear stress ranging from 0.5-5.0 dyn/cm^2 for times ranging from 15 to 60 min. Primarily, the cells were treated with FSS of magnitude 5.0 dyn/cm^2 for 1 h.
Where indicated, Jurkat cells were pretreated with different compounds prior to antibody and FSS treatment. The Jurkat cells were incubated with either 5 μM Cyclosporin A (CSA), 10 μM Cytochalasin D (CCD), 10 μM GsMTx-4, or 2 mM EGTA 30 min prior to antibody and FSS treatment.
Flow cytometry antibody staining: When staining for intracellular proteins, the cells were immediately fixed with 4% paraformaldehyde for 10 min. The cells were washed thoroughly and permeabilized with 100% ice cold methanol for 10 min. After washing the cells, the cells were stained with the indicated fluorescent-tagged antibodies for 15 min in 1% BSA. The fluorescence of each sample was measured using a Gauva easyCyte 5HT flow cytometer. Gating was performed using FlowJo software. For Jurkat samples, debris was gated out and fluorescence was quantified using FlowJo software.

[2] = test system: NF-κB phosphorylation in DC2.4 cells; test: NF-κB phosphorylation in DC2.4 dendritic cells (flow cytometry); type: cell-based, murine
Procedure: (§1) Prior to prepping cells, the cone-and-plate was incubated with 5% bovine serum albumin (BSA) for 1 h in order to block non-specific binding. DC2.4 cells were lifted with trypsin, washed, and resuspended in complete RMPI media at 200,000 cells/mL. Cells were placed on a rotator for static conditions. For shear conditions, an FSS of 5.0 dyn/cm^2 was applied for 1 h using cone-and-plate flow device. Static and shear conditions were either left untreated or treated with lipopolysaccharide (LPS) potent stimulator at 10 μg/mL.
(§2) Flow cytometry analysis and antibody staining: Following FSS stimulation, cells were plated overnight or immediately prepped for flow cytometry analysis. For intracellular proteins such as NF-κB and AP-1, cells were fixed with 4% paraformaldehyde for 10 min. Cells were washed with HBSS and permeabilized with 100% ice cold methanol. Cells were washed again and stained for 15 min in the dark with antibodies fluorescently-labeled with PE fluorophore while suspended in 1% BSA. Guava easyCyte 5HT flow cytometer was used to measure fluorescent intensity, with FloJo software used for gating and analysis. For extracellular proteins analyzed after 24 h, cells were lifted with trypsin, washed, and incubated with fluorescently-labeled antibodies in 1% BSA and then washed a final time.
(§3) Inhibition of NF-κB: NF-κB was inhibited using caffeic acid phenethyl ester (CAPE). DC2.4 cells were lifted, washed and suspended in 200,000 cells/mL complete media. 1 μL of CAPE was added to this suspension. Cells were placed on a rotator for 30 min to allow for effective inhibition, and then added to the cone-and-plate viscometer for FSS stimulation. Following FSS, NF-κB phosphorylation analysis was performed after 1 h FSS. Following stimulation, 100,000 cells were plated overnight for cytokine analysis and 100,000 cells were immediately analyzed for NF-κB phosphorylation. NF-κB and cytokine assays were performed as described previously.
GsMTx4: GsMTx-4 (ab141871) was purchased from Abcam. […] Following FSS, cells were prepared and analyzed for NF-κB phosphorylation as previously described. […]

[3] = test system: DC2.4 cells; test: Costimulatory molecule expression in DC2.4 cells 24 h after stimulation; type: cell-based, murine; conditions: 10 μg/mL LPS, 24 h after 1 h stimulation, regardless of shear stress
Procedure: as §1, §2

[4] = test system: DC2.4 cells; test: Intracellular cytokine staining of DC2.4 cells after 24 h (IL-6, IL-12, CCR7); type: cell-based, murine
Procedure: as §1
Cytokine staining: For intracellular cytokine staining (ICS), cells were plated overnight following FSS stimulation. After 24 h, cells were treated with 1:1000 GolgiPlug Transport Inhibitor to block cytokine secretion. After 4 h, cells were lifted and stained following the previously described protocol for staining intracellular proteins. IL-6, IL-12 and CCR7 were investigated in this study.
as §3

[5] = Jurkat cells pretreated 10 μM 30 min prior to FSS and antibody treatment, compared to FSS and antibodies without the inhibitor
[6] = after CAPE treatment and FSS, 24 h

Compound: O=C(O)CN(CCOCCOCCN(CC(=O)O)CC(=O)O)CC(=O)O [EGTA]
- ZAP70 phosphorylation ([1]; Jurkat cells pretreated 2 mM for 30 min, then FSS and antibodies, compared to FSS and antibodies only): significant reduction

Compound: C=C1[C@@H](C)[C@H]2[C@H](Cc3ccccc3)NC(=O)[C@]23[C@H](OC(C)=O)/C=C/[C@@](C)(O)C(=O)[C@@H](C)C/C=C/[C@H]3[C@@H]1O [CCD, Cytochalasin D]
- ZAP70 phosphorylation (activation), antibody-only condition ([1]; Jurkat cells pretreated 10 μM 30 min, antibody-only, no FSS): not significantly altering
- ZAP70 phosphorylation [1, 5]: significantly reduced

Compound: GsMTx-4
- NF-κB phosphorylation ([2]; DC2.4 cells incubated with 10 μmol GsMTx4, FSS, two replicates): reduced
- ZAP70 phosphorylation [1, 5]: significant reduction

Compound: lipopolysaccharide [LPS]
- NF-κB phosphorylation, FSS with LPS versus FSS without LPS ([2]; DC2.4 cells, 10 μg/mL LPS, 5.0 dyn/cm^2 FSS, 1 h): no significant difference
- CD40 costimulatory molecule expression enhanced in the presence of LPS [3]: significant
- CD80 costimulatory molecule expression enhanced in the presence of LPS [3]: trend
- release of IL-6, IL-12 and CCR7, FSS versus FSS with LPS ([4]; 10 μg/mL LPS, 24 h after 1 h 5.0 dyn/cm^2 FSS): not a significant difference

Compound: O=C(/C=C/c1ccc(O)c(O)c1)OCCc1ccccc1 [CAPE, caffeic acid phenethyl ester]
- NF-κB phosphorylation compared to untreated cells ([2]; DC2.4 cells, CAPE 30 min before 1 h FSS): significant reduction
- CCR7 production [4, 6]: strong trend in the reduction
- IL-6 production [4, 6]: strong trend in the reduction
- IL-12 release [4, 6]: significant reduction
